≈ marks a conversion by molar mass, not a printed value. Numbered stars: 1 amine (or outer) side, 2 acyl side, 3 side chain; on linkers, the order of the positions; unused ones are H or OH. Square brackets hold non-standard residues; d marks the D form. Peptide text beside a SMILES is read from it. * marks the point of attachment. ξ: configuration not given here. X2 = NCCCC[C@H](NC(=O)[C@H](CCCCN)NC(=O)[C@H](CCCCN)NC(=O)[C@H](CCCCN)NCCCCCC(=O)[C@@H]1Cc2ccccc2CN1*)C(N)=O; Pro(3ξ,4ξ-(CH2)4) = O=C(O)[C@H]1NCC2CCCCC21; Ethylenediamine = C(CN[*:2])N[*:1]; Tic = O=C(O)[C@@H]1Cc2ccccc2CN1; Dap = NC[C@H](N)C(=O)O
Legend:
Type in all cases: functional
Enterococcus faecium = test: Antibacterial activity against Enterococcus faecium MMC4 after 24 hrs by broth microdilution method; settings: MMC4, 24 h
Klebsiella aerogenes = test: Antibacterial activity against Enterobacter aerogenes after 24 hrs by broth microdilution method
Pseudomonas aeruginosa = test: Antibacterial activity against Pseudomonas aeruginosa PAO1 after 24 hrs by broth microdilution method; settings: PAO1, 24 h
Klebsiella pneumoniae = test: Antibacterial activity against Klebsiella pneumoniae BAMS clinical isolate 07-18 after 24 hrs by broth microdilution method; settings: BAMS clinical isolate 07-18, 24 h
Acinetobacter baumannii = test: Antibacterial activity against Acinetobacter baumannii WRAIR clinical isolate 13 after 24 hrs by broth microdilution method; settings: WRAIR clinical isolate 13, 24 h
Staphylococcus aureus = test: Antibacterial activity against methicillin-sensitive Staphylococcus aureus UAMS-1 after 24 hrs by broth microdilution method; settings: UAMS-1, 24 h

| Compound | MBC (Enterococcus faecium) [µg/mL] | MIC (Enterococcus faecium) [µg/mL] | MBC (Klebsiella aerogenes) [µg/mL] | MIC (Klebsiella aerogenes) [µg/mL] | MBC (Pseudomonas aeruginosa) [µg/mL] | MIC (Pseudomonas aeruginosa) [µg/mL] | MBC (Klebsiella pneumoniae) [µg/mL] | MIC (Klebsiella pneumoniae) [µg/mL] | MBC (Acinetobacter baumannii) [µg/mL] | MIC (Acinetobacter baumannii) [µg/mL] | MBC (Staphylococcus aureus) [µg/mL] | MIC (Staphylococcus aureus) [µg/mL] |
| --- | --- | --- | --- | --- | --- | --- | --- | --- | --- | --- | --- | --- |
| CC(C)C[C@H](NC(=O)[C@@H](N)CN)C(=O)N1Cc2ccccc2C[C@H]1C(=O)N1CC2CCCCC2[C@H]1C(=O)N[C@@H](CN)C(=O)N1Cc2ccccc2C[C@H]1C(=O)N1CC2CCCCC2[C@H]1C(=O)N[C@@H](Cc1ccccc1)C(=O)N1Cc2ccccc2C[C@H]1C(=O)N1CC2CCCCC2[C@H]1C(=O)N[C@@H](CN)C(=O)N1Cc2ccccc2C[C@H]1C(=O)N1CC2CCCCC2[C@H]1C(=O)N[C@@H](Cc1ccccc1)C(=O)N1Cc2ccccc2C[C@H]1C(=O)N1CC2CCCCC2[C@H]1C(=O)N[C@@H](CN)C(=O)N1Cc2ccccc2C[C@H]1C(=O)N1CC2CCCCC2[C@H]1C(=O)N[C@@H](CN)C(=O)N[C@@H](CN)C(=O)N[C@@H](CN)C(=O)N[C@@H](CN)C(N)=O (stereo partly drawn) (H-[Dap]L[Tic][Pro(3ξ,4ξ-(CH2)4)][Dap][Tic][Pro(3ξ,4ξ-(CH2)4)]F[Tic][Pro(3ξ,4ξ-(CH2)4)][Dap][Tic][Pro(3ξ,4ξ-(CH2)4)]F[Tic][Pro(3ξ,4ξ-(CH2)4)][Dap][Tic][Pro(3ξ,4ξ-(CH2)4)][Dap][Dap][Dap][Dap]-NH2) | 25 (≈ 8.4 µM) | 12.5 (≈ 4.2 µM) | 100 (≈ 33.6 µM) | 100 (≈ 33.6 µM) | 100 (≈ 33.6 µM) | 50 (≈ 16.8 µM) | 100 (≈ 33.6 µM) | 100 (≈ 33.6 µM) | 50 (≈ 16.8 µM) | 12.5 (≈ 4.2 µM) | 100 (≈ 33.6 µM) | 50 (≈ 16.8 µM) |
| CC(=O)NCC(=O)N[C@@H](Cc1ccccc1)C(=O)N1Cc2ccccc2C[C@H]1C(=O)N1CC2CCCCC2[C@H]1C(=O)NCC(=O)N[C@@H](CCCCN)C(=O)N1Cc2ccccc2C[C@H]1C(=O)N1CC2CCCCC2[C@H]1C(=O)NCC(=O)N[C@@H](Cc1ccccc1)C(=O)N1Cc2ccccc2C[C@H]1C(=O)N1CC2CCCCC2[C@H]1C(=O)NCC(=O)N[C@@H](CCCCN)C(=O)N1Cc2ccccc2C[C@H]1C(=O)CCCCCN[C@@H](CCCCN)C(=O)N[C@@H](CCCCN)C(=O)N[C@@H](CCCCN)C(=O)N[C@@H](CCCCN)C(N)=O (stereo partly drawn) (Ac-GF[Tic][Pro(3ξ,4ξ-(CH2)4)]GK[Tic][Pro(3ξ,4ξ-(CH2)4)]GF[Tic][Pro(3ξ,4ξ-(CH2)4)]GK-X2) | > 100 | 25 (≈ 9.96 µM) | > 100 | 100 (≈ 39.8 µM) | > 100 | 100 (≈ 39.8 µM) | 100 (≈ 39.8 µM) | 100 (≈ 39.8 µM) | 25 (≈ 9.96 µM) | 12.5 (≈ 4.98 µM) | > 100 | 100 (≈ 39.8 µM) |
| CC(=O)NCC(=O)N[C@@H](Cc1ccccc1)C(=O)N1Cc2ccccc2C[C@H]1C(=O)N1CC2CCCCC2[C@H]1C(=O)NCC(=O)N[C@@H](CCCCN)C(=O)N1Cc2ccccc2C[C@H]1C(=O)N1CC2CCCCC2[C@H]1C(=O)NCC(=O)N[C@@H](Cc1ccccc1)C(=O)N1Cc2ccccc2C[C@H]1C(=O)N1CC2CCCCC2[C@H]1C(=O)NCC(=O)N[C@@H](CCCCN)C(=O)N1Cc2ccccc2C[C@H]1C(=O)N[C@@H](CCCCN)C(=O)N[C@@H](CCCCN)C(=O)N[C@@H](CCCCN)C(=O)N[C@@H](CCCCN)C(=O)NCCN (stereo partly drawn) (Ac-GF[Tic][Pro(3ξ,4ξ-(CH2)4)]GK[Tic][Pro(3ξ,4ξ-(CH2)4)]GF[Tic][Pro(3ξ,4ξ-(CH2)4)]GK[Tic]KKKK-Ethylenediamine) | 25 (≈ 10.1 µM) | 12.5 (≈ 5.03 µM) | 50 (≈ 20.1 µM) | 50 (≈ 20.1 µM) | 100 (≈ 40.3 µM) | 50 (≈ 20.1 µM) | 50 (≈ 20.1 µM) | 25 (≈ 10.1 µM) | 6.25 (≈ 2.52 µM) | 6.25 (≈ 2.52 µM) | > 100 | 50 (≈ 20.1 µM) |
| CC(=O)N[C@@H](CCCCN)C(=O)N[C@@H](CCCCN)C(=O)N[C@@H](CCCCN)C(=O)N[C@@H](CCCCN)C(=O)NCC(=O)N[C@@H](Cc1ccccc1)C(=O)N1Cc2ccccc2C[C@H]1C(=O)N1CC2CCCCC2[C@H]1C(=O)NCC(=O)N[C@@H](CCCCN)C(=O)N1Cc2ccccc2C[C@H]1C(=O)N1CC2CCCCC2[C@H]1C(=O)NCC(=O)N[C@@H](Cc1ccccc1)C(=O)N1Cc2ccccc2C[C@H]1C(=O)N1CC2CCCCC2[C@H]1C(=O)NCC(=O)N[C@@H](CCCCN)C(=O)N1Cc2ccccc2C[C@H]1C(N)=O (stereo partly drawn) (Ac-KKKKGF[Tic][Pro(3ξ,4ξ-(CH2)4)]GK[Tic][Pro(3ξ,4ξ-(CH2)4)]GF[Tic][Pro(3ξ,4ξ-(CH2)4)]GK[Tic]-NH2) | > 100 | 25 (≈ 10.2 µM) | > 100 | > 100 | > 100 | > 100 | 100 (≈ 41 µM) | 100 (≈ 41 µM) | 25 (≈ 10.2 µM) | 12.5 (≈ 5.12 µM) | > 100 | > 100 |
